From PMC5974779, “Prediction of Drug-Induced Hepatotoxicity Using Long-Term Stable Primary Hepatic 3D Spheroid Cultures in Chemically Defined Conditions” (Toxicological Sciences, 2018)
Read-outs that look alike come from different tables or passages of the source.

Columns and labels:
[1] = system: primary human hepatocytes (PHH) 3D spheroids
clinical DILI in man = conditions: cited from earlier work
[2] = cited from earlier work
[3] = ref DrugBank and Prescribers' Digital Reference database; cited from earlier work
PHH 2D sandwich cultures = conditions: PHH 2D sandwich cultures, 100x Cmax; ref Xu 2008; cited from earlier work
[4] = DILI classification score, ref Suzuki et al. (2010)
[5] = FDA drug labeling DILI concern, ref Chen et al., 2011
[6] = FDA drug labeling DILI score, ref Chen et al., 2011
[7] = clinical DILI classification in man (POS/NEG)
[8] = clinical DILI classification used in this study, Supplementary Table 2, ref Chen et al., 2011, Guo et al., 2005, O'Brien et al., 2006, Sakatis et al., 2012, Suzuki et al., 2010, Xu et al., 2008
[9] = clinical DILI classification, Supplementary Table 1, ref Chen et al., 2011, Guo et al., 2005, O'Brien et al., 2006, Sakatis et al., 2012, Suzuki et al., 2010, Xu et al., 2008
[10] = clinical DILI classification, ref Xu et al. (2008)
[11] = clinical hepatotoxicity classification, ref O'Brien et al. (2003)
[12] = reported pattern of liver damage, Supplementary Table 2, ref literature
[13] = therapeutic total cmax, ref PMID

| Structure (SMILES) | Chemically defined spheroids (this study) 20x [1] | FDA (0-8) (clinical DILI in man; [6]) | DILI in vivo (clinical DILI in man; [7]) | Classified as (clinical DILI in man; [8]) | DILI in vivo (clinical DILI in man; [9]) | Type of DILI (clinical DILI in man; [12]) | Cmax [2, 13] [nM] | Extent of hepatic metabolism [3] | 2Dsw (Xu 2008) 100x (PHH 2D sandwich cultures) | Classified as (clinical DILI in man; in vivo) | Clinical DILI class (panel heading of Figure 4) (clinical DILI in man; in vivo) | DILI in vivo (clinical DILI in man; in vivo) | FDA (0-8) (clinical DILI in man; in vivo) | Type of DILI (clinical DILI in man; in vivo) | other results |
| --- | --- | --- | --- | --- | --- | --- | --- | --- | --- | --- | --- | --- | --- | --- | --- |
| Fc1ccc([C@@H]2CCNC[C@H]2COc2ccc3c(c2)OCO3)cc1 [Paroxetine] | Negative | 8 | NEG | NEG | NEG | Non-hepatotoxic | 50 | Extensive |  |  |  |  |  |  | Suzuki et al. (2010) (clinical DILI in man; [4]): 2; FDA (Severity) (clinical DILI in man; [5]): less DILI concern; Xu et al. (2008) (clinical DILI in man; [10]): Negative; O'Brien et al. (2003) (clinical DILI in man; [11]): Moderately |
| CC(C)NNC(=O)c1ccncc1 [Iproniazid] | Negative | Withdrawn | POS | POS | POS | Hepatocellular injury | 40 | Extensive |  |  |  |  |  |  | hepatotoxicity evaluation in CD-spheroids [1]: predicted to be DILI negative; Suzuki et al. (2010) (clinical DILI in man; [4]): 3; FDA (Severity) (clinical DILI in man; [5]): most DILI concern; Sakatis et al. (2012) (clinical DILI in man; in vivo): Hepatotoxic |
| CN(C)C(=O)Oc1cc(OC(=O)N(C)C)cc(C(O)CNC(C)(C)C)c1 (stereo not drawn) [Bambuterol] | Negative |  | NEG | NEG | NEG | Non-hepatotoxic | 10 | Extensive | Negative |  |  |  |  |  |  |
| Sc1ncnc2nc[nH]c12 [Mercaptopurine] | Positive |  |  |  |  |  | 480 | Extensive | Negative | POS | Severe DILI | POS | 8 | Cholestatic injury or Mixed hepatitis | FDA (Severity) (clinical DILI in man; in vivo): most DILI concern; Guo et al. (2005) (clinical DILI in man; in vivo): 3; O'Brien et al. (2003) (clinical DILI in man; in vivo): Severely; Sakatis et al. (2012) (clinical DILI in man; in vivo): Hepatotoxic; Suzuki et al. (2010) (clinical DILI in man; in vivo): 2; Xu et al. (2008) (clinical DILI in man; in vivo): Positive |
| Nc1ccc(/N=N/c2ccccc2)c(N)n1 [Phenazopyridine] | Negative |  | POS | POS | POS | Hepatocellular injury | 110 | Moderate | Negative |  |  |  |  |  |  |
| NCCc1ccc(O)c(O)c1 [Dopamine] | Negative |  |  |  |  |  | 121 | Extensive | Negative | NEG | DILI negative | NEG | 0 | Non-hepatotoxic | Xu et al. (2008) (clinical DILI in man; in vivo): Negative |
| C[C@H](CCC(=O)O)[C@H]1CC[C@H]2[C@@H]3[C@H](O)C[C@@H]4C[C@H](O)CC[C@]4(C)[C@H]3CC[C@]12C [Chenodiol] | Positive |  | POS | POS | POS | Cholestatic injury | 8000 | Extensive | Positive |  |  |  |  |  |  |
| O=C(c1ccccc1)c1ccc2n1CCC2C(=O)O (stereo not drawn) [Ketorolac] | Positive | 3 | POS | POS | POS |  | 2390 | Moderate |  |  |  |  |  |  | Guo et al. (2005) (clinical DILI in man; DILI classification score, ref Guo et al. (2005)): 2; Suzuki et al. (2010) (clinical DILI in man; [4]): 1; FDA (Severity) (clinical DILI in man; [5]): less DILI concern; Xu et al. (2008) (clinical DILI in man; [10]): Positive; O'Brien et al. (2003) (clinical DILI in man; [11]): Severely |
| COC(=O)C1=C(C)NC(C)=C(C(=O)OCC(C)C)C1c1ccccc1[N+](=O)[O-] (stereo not drawn) [Nisoldipine] | Negative |  |  |  |  |  | 13 | Extensive | Negative |  |  |  |  |  |  |
| CCN(CC)Cc1cc(Nc2ccnc3cc(Cl)ccc23)ccc1O [Amodiaquine] | Positive |  |  |  |  |  | 1910 | Extensive |  | POS | Severe DILI | POS |  | Hepatocellular injury | hepatotoxicity evaluation in CD-spheroids ([1]; human, 14 days): highly toxic at 5× and 20× of therapeutic serum levels; Clinical DILI classification (Figure 5) (clinical DILI in man; in vivo): DILI positive |
| CNC(=O)Oc1ccc2c(c1)[C@]1(C)CCN(C)[C@@H]1N2C [Physostigmine] | Negative | 0 | NEG | NEG | NEG | Non-hepatotoxic |  | Extensive |  |  |  |  |  |  | Xu et al. (2008) (clinical DILI in man; [10]): Negative; O'Brien et al. (2003) (clinical DILI in man; in vivo): Non-toxic; Cmax ([2]; human, in vivo): 18 nM |
| OC(Cn1cncn1)(Cn1cncn1)c1ccc(F)cc1F [Fluconazole] | Negative |  |  |  |  |  | 8820 | Minimal |  | POS | Severe DILI | POS | 8 | Hepatocellular injury | FDA (Severity) (clinical DILI in man; in vivo): most DILI concern; Guo et al. (2005) (clinical DILI in man; in vivo): 3; Sakatis et al. (2012) (clinical DILI in man; in vivo): Hepatotoxic; Suzuki et al. (2010) (clinical DILI in man; in vivo): 1; Xu et al. (2008) (clinical DILI in man; in vivo): Positive |
| CC(C)(C)c1ccc(C(O)CCCN2CCC(C(O)(c3ccccc3)c3ccccc3)CC2)cc1 (stereo not drawn) [Terfenadine] |  |  |  |  |  |  | 4.5 | Extensive | Negative | NEG | DILI negative | NEG |  | Non-hepatotoxic |  |
| NNc1nnc(NN)c2ccccc12 [Dihydralazine] | Positive |  | POS | POS | POS | Hepatocellular injury or Cholestatic injury | 2630 | Moderate |  |  |  |  |  |  |  |
| CCCN(CCC)C(=O)Cc1c(-c2ccc(Cl)cc2)nc2ccc(Cl)cn12 [Alpidem] | Positive | Withdrawn | POS | POS | POS | Hepatocellular injury | 670 | Extensive |  |  |  |  |  |  | Suzuki et al. (2010) (clinical DILI in man; [4]): 3; FDA (Severity) (clinical DILI in man; [5]): most DILI concern; Sakatis et al. (2012) (clinical DILI in man; clinical hepatotoxicity classification, ref Sakatis et al. (2012)): Hepatotoxic |
| CN(C)/N=N/c1[nH]cnc1C(N)=O [Dacarbazine] | Positive |  |  |  |  |  | 16600 | Extensive |  | POS | Severe DILI | POS | 6 | Hepatocellular injury | FDA (Severity) (clinical DILI in man; in vivo): most DILI concern; Guo et al. (2005) (clinical DILI in man; in vivo): 3; Sakatis et al. (2012) (clinical DILI in man; in vivo): Hepatotoxic |
| CCCCNc1cc(C(=O)O)cc(S(N)(=O)=O)c1Oc1ccccc1 [Bumetanide] | Negative |  |  |  |  |  | 80 | Moderate |  | POS | High DILI concern | POS | 3 |  | Xu et al. (2008) (clinical DILI in man; in vivo): Positive |
| CN1Cc2c(N)cccc2C(c2ccccc2)C1 (stereo not drawn) [Nomifensine] | Positive | Withdrawn | POS | POS | POS | Cholestatic injury | 5640 | Moderate |  |  |  |  |  |  | Suzuki et al. (2010) (clinical DILI in man; [4]): 3; FDA (Severity) (clinical DILI in man; [5]): most DILI concern; Xu et al. (2008) (clinical DILI in man; [10]): Positive |
| CC(C)OC(=O)C(C)(C)Oc1ccc(C(=O)c2ccc(Cl)cc2)cc1 [Fenofibrate] | Positive |  |  |  |  |  | 12100 | Extensive |  | POS | High DILI concern | POS | 3 | Hepatocellular injury, Cholestatic injury or Mixed hepatitis | FDA (Severity) (clinical DILI in man; in vivo): less DILI concern; O'Brien et al. (2003) (clinical DILI in man; in vivo): Moderately; Sakatis et al. (2012) (clinical DILI in man; in vivo): Hepatotoxic; Suzuki et al. (2010) (clinical DILI in man; in vivo): 1; Xu et al. (2008) (clinical DILI in man; in vivo): Positive |
